{
  "source": "the supplement of paper PMC10307832",
  "assay_in_all_cases": "relative viability (nuclei count vs DMSO), 5 days (fraction); higher = more cells survive",
  "key": {"[1]": {"compound": "CC1=NC=CC(=C1)C2=CC=C(C=C2)CC(=O)NC3=CC=C(C=C3)C4=CN=CC=C4 [Wnt-C59]", "method_in_brief": "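In 1536-well plates, lung cancer cell lines rested overnight at 37 °C before five library-drug doses (not always all listed), √10 apart, were pinned onto vehicle-anchored plates. Nuclei were counted with MetaXpress from 4× Hoechst images taken after 5 days without medium change. Viability compares treated-well with vehicle-well nuclei as a median over plates, and plates needed control CV below 25% plus at least one doubling to pass.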"}, "[2]": {"compound": "CC1=NC=CC(=C1)C2=CC=C(C=C2)CC(=O)NC3=CC=C(C=C3)C4=CN=CC=C4 [Wnt-C59] + CC(=O)c1c(C)c2cnc(Nc3ccc(N4CCNCC4)cn3)nc2n(C2CCCC2)c1=O [Palbociclib] (partner 0.5 µM)", "method_in_brief": "(§1)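 Relative viability was taken as the ratio of nuclei in treated wells to nuclei in vehicle wells. Lung cancer cell lines in 1536-well plates received compounds by pin tool one day after seeding, either one drug alone or a fixed anchor-drug dose plus five library-drug doses (not always all listed) in √10 steps. Nuclei were counted on 4× images after 5 days of treatment, and values are medians of duplicate plates.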"}, "[3]": {"compound": "CS(=O)(=O)CCNCc1ccc(-c2ccc3ncnc(Nc4ccc(OCc5cccc(F)c5)c(Cl)c4)c3c2)o1 [Lapatinib] + CC(C)C[C@H](NC(=O)[C@H](Cc1ccccc1)NC(=O)c1cnccn1)B(O)O [Bortezomib] (partner 0.002 µM)", "method_in_brief": "as §1"}, "[4]": {"compound": "CS(=O)(=O)CCNCc1ccc(-c2ccc3ncnc(Nc4ccc(OCc5cccc(F)c5)c(Cl)c4)c3c2)o1 [Lapatinib] + Cc1cc(Nc2cc(N3CCN(C)CC3)nc(Sc3ccc(NC(=O)C4CC4)cc3)n2)n[nH]1 [Tozasertib] (partner 0.1 µM)", "method_in_brief": "as §1"}},
  "data": [
    {"cell line": "LCLC-97TM1", "values": [
      {"measurement": "relative viability", "setting": "[1]; 0.001 µM", "result": 1.04},
      {"measurement": "relative viability", "setting": "[1]; 0.01 µM", "result": 0.908},
      {"measurement": "relative viability", "setting": "[1]; 0.03162 µM", "result": 1.07},
      {"measurement": "relative viability", "setting": "[1]; 0.1 µM", "result": 1.06},
      {"measurement": "relative viability", "setting": "[2]; first compound 0.001 µM", "result": 0.254},
      {"measurement": "relative viability", "setting": "[2]; first compound 0.01 µM", "result": 0.228},
      {"measurement": "relative viability", "setting": "[2]; first compound 0.03162 µM", "result": 0.216},
      {"measurement": "relative viability", "setting": "[2]; first compound 0.1 µM", "result": 0.248},
      {"measurement": "relative viability", "setting": "[3]; first compound 0.2 µM", "result": 0.515},
      {"measurement": "relative viability", "setting": "[3]; first compound 0.6325 µM", "result": 0.74},
      {"measurement": "relative viability", "setting": "[3]; first compound 2 µM", "result": 0.819},
      {"measurement": "relative viability", "setting": "[4]; first compound 0.2 µM", "result": 0.214},
      {"measurement": "relative viability", "setting": "[4]; first compound 0.6325 µM", "result": 0.229},
      {"measurement": "relative viability", "setting": "[4]; first compound 2 µM", "result": 0.176}
    ]}
  ]
}
